Source: patent US12618095B2, “Medium for Bacillus cereus group detection” (SHIMADZU DIAGNOSTICS CORPORATION, priority 2020, dated 2026)

System: C. albicans
Assay: Test Example 9: concentration of amphotericin B

Measured: Number of colonies

C[C@@H]1[C@H](O)[C@@H](C)/C=C/C=C/C=C/C=C/C=C/C=C/C=C/[C@H](O[C@@H]2O[C@H](C)[C@@H](O)[C@H](N)[C@@H]2O)C[C@@H]2O[C@](O)(C[C@@H](O)C[C@@H](O)[C@H](O)CC[C@@H](O)C[C@@H](O)CC(=O)O[C@H]1C)C[C@H](O)[C@H]2C(=O)O [Amphotericin B]
−: ATCC10231, Amphotericin B 0.1 mg, 24 hours, 10^2 cfu/mL | ATCC10231, Amphotericin B 0.1 mg, 24 hours, 10^3 cfu/mL | ATCC10231, Amphotericin B 0.1 mg, 24 hours, 10^4 cfu/mL | ATCC10231, Amphotericin B 0.1 mg, 24 hours, 10^5 cfu/mL | ATCC10231, Amphotericin B 0.1 mg, 44 hours, 10^2 cfu/mL | ATCC10231, Amphotericin B 0.1 mg, 44 hours, 10^3 cfu/mL | ATCC10231, Amphotericin B 0.1 mg, 44 hours, 10^4 cfu/mL | ATCC10231, Amphotericin B 1.0 mg, 24 hours, 10^2 cfu/mL | ATCC10231, Amphotericin B 1.0 mg, 24 hours, 10^3 cfu/mL | ATCC10231, Amphotericin B 1.0 mg, 24 hours, 10^4 cfu/mL | ATCC10231, Amphotericin B 1.0 mg, 24 hours, 10^5 cfu/mL | ATCC10231, Amphotericin B 1.0 mg, 44 hours, 10^2 cfu/mL | ATCC10231, Amphotericin B 1.0 mg, 44 hours, 10^3 cfu/mL | ATCC10231, Amphotericin B 1.0 mg, 44 hours, 10^4 cfu/mL | ATCC10231, Amphotericin B 1.0 mg, 44 hours, 10^5 cfu/mL | ATCC10231, Amphotericin B 10 mg, 24 hours, 10^2 cfu/mL | ATCC10231, Amphotericin B 10 mg, 24 hours, 10^3 cfu/mL | ATCC10231, Amphotericin B 10 mg, 24 hours, 10^4 cfu/mL | ATCC10231, Amphotericin B 10 mg, 24 hours, 10^5 cfu/mL | ATCC10231, Amphotericin B 10 mg, 44 hours, 10^2 cfu/mL | ATCC10231, Amphotericin B 10 mg, 44 hours, 10^3 cfu/mL | ATCC10231, Amphotericin B 10 mg, 44 hours, 10^4 cfu/mL | ATCC10231, Amphotericin B 10 mg, 44 hours, 10^5 cfu/mL | ATCC14053, Amphotericin B 0.1 mg, 24 hours, 10^2 cfu/mL | ATCC14053, Amphotericin B 0.1 mg, 24 hours, 10^3 cfu/mL | ATCC14053, Amphotericin B 0.1 mg, 24 hours, 10^4 cfu/mL | ATCC14053, Amphotericin B 0.1 mg, 24 hours, 10^5 cfu/mL | ATCC14053, Amphotericin B 0.1 mg, 44 hours, 10^2 cfu/mL | ATCC14053, Amphotericin B 0.1 mg, 44 hours, 10^3 cfu/mL | ATCC14053, Amphotericin B 0.1 mg, 44 hours, 10^4 cfu/mL | ATCC14053, Amphotericin B 1.0 mg, 24 hours, 10^2 cfu/mL | ATCC14053, Amphotericin B 1.0 mg, 24 hours, 10^3 cfu/mL | ATCC14053, Amphotericin B 1.0 mg, 24 hours, 10^4 cfu/mL | ATCC14053, Amphotericin B 1.0 mg, 24 hours, 10^5 cfu/mL | ATCC14053, Amphotericin B 1.0 mg, 44 hours, 10^2 cfu/mL | ATCC14053, Amphotericin B 1.0 mg, 44 hours, 10^3 cfu/mL | ATCC14053, Amphotericin B 1.0 mg, 44 hours, 10^4 cfu/mL | ATCC14053, Amphotericin B 1.0 mg, 44 hours, 10^5 cfu/mL | ATCC14053, Amphotericin B 10 mg, 24 hours, 10^2 cfu/mL | ATCC14053, Amphotericin B 10 mg, 24 hours, 10^3 cfu/mL | ATCC14053, Amphotericin B 10 mg, 24 hours, 10^4 cfu/mL | ATCC14053, Amphotericin B 10 mg, 24 hours, 10^5 cfu/mL | ATCC14053, Amphotericin B 10 mg, 44 hours, 10^2 cfu/mL | ATCC14053, Amphotericin B 10 mg, 44 hours, 10^3 cfu/mL | ATCC14053, Amphotericin B 10 mg, 44 hours, 10^4 cfu/mL | ATCC14053, Amphotericin B 10 mg, 44 hours, 10^5 cfu/mL
